According to paper PMC5324103 (Scientific Reports, 2017):

Legend:
[1] = biological target: T1, LXRα (Homo sapiens, UniProt Q13133); assay: LXRα transactivation, luciferase reporter assay in HepG2 cells; format: cell-based; details: for EC50: dose-response 1-50 μM, mean ± SE, read-out: LXRα Affinity (EC50); for Emax at 10 µM: compound 10 μM vs GW3965 10 μM (=100%), NA = no activity at 10 μM, read-out: LXRα Efficacy (% vs GW3965)
T1 construct: expressed in transfected cells; host or cells: HepG2
T1 sequence (Q13133 209-447 limits assumed): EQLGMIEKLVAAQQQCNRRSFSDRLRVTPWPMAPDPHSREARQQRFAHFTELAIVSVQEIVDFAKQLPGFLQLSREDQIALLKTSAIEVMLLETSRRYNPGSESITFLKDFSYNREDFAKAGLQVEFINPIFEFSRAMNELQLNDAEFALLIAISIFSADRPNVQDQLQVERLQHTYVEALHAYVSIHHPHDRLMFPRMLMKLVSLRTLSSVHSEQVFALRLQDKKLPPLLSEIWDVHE
Experimental: Derivatives 4–30 were tested for their activity in a luciferase reporter assay with HepG2 and HEK-293T cells transfected with LXRα,β and GPBAR1, respectively. Table 1 reports the efficacy of tested compounds compared to those of reference compounds, GW3965 for LXRα/β and TLCA for GPBAR1.
Each compound was tested at the concentration of 10 μM and transactivation activity of GW3965 on LXRs and TLCA on CRE (i.e. TGR5/GPBAR1) was considered equal to 100%.
To evaluate LXRα mediated transactivation, HepG2 cells were transfected with 20 ng of the reporter vector p(UAS)5XTKLuc, 100 ng of a vector containing the ligand binding domain of LXRα cloned upstream of the GAL4-DNA binding domain (i.e. pSG5-LXRαLBD-GAL4DBD) and […] pGL4.70 (Promega), a vector encoding the human Renilla gene. To evaluate GPBAR1 mediated transactivation, HEK-293T cells were transfected with 200 ng of human pGL4.29 (Promega), a reporter vector containing a cAMP response element (CRE) that drives the transcription of the luciferase reporter gene luc2P, with 100 ng of pCMVSPORT6-human GPBAR1, and with 100 ng of pGL4.70 Renilla. To evaluate FXR mediated transactivation, HepG2 cells were transfected with 100 ng of human pSG5-FXR, 100 ng of human pSG5-RXR, 200 ng of the reporter vector p(hsp27)-TK-LUC containing the FXR response element IR1 cloned from the promoter of heat shock protein 27 (hsp27) and with 100 ng of pGL4.70 Renilla. At 24 h post-transfection, cells were stimulated 18 h with 10 μM GW3965, TLCA, or CDCA and compounds 4–30 (10 μM). Luciferase activities were assayed and normalized with Renilla activities. Dose-response curves were performed in HepG2 and HEK-293T cells transfected as described above and then treated with increasing concentrations of compounds 4, 5, 8, 9, 12–15, 17, 20, 21, 24, 25, 27, 29, 30 (1, 5, 10, 25 and 50 μM). At 18 h post stimulations, cellular lysates were assayed for luciferase and Renilla activities using the Dual-Luciferase Reporter assay system (E1980, Promega). Luminescence was measured using Glomax 20/20 luminometer (Promega). Luciferase activities (RLU) were normalized with Renilla activities (RRU).

[2] = biological target: T2, GPBAR1 (Homo sapiens, UniProt Q8TDU6); assay: GPBAR1 transactivation, CRE-luciferase reporter assay in HEK-293T cells; format: cell-based; details: dose-response 1-50 μM, mean ± SE of 3 experiments in duplicate, read-out: GPBAR1 Affinity (EC50)
T2 construct: expressed in transfected cells; host or cells: HEK-293T
T2 sequence (Q8TDU6 1-330): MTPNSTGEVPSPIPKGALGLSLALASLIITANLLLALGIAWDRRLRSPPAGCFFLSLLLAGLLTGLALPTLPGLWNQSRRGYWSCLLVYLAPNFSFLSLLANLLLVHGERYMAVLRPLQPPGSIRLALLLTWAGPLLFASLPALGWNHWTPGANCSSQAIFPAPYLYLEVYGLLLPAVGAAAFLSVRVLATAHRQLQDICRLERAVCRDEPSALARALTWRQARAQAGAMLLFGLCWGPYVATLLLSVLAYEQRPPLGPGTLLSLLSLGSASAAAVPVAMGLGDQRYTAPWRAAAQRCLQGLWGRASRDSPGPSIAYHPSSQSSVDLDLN

[3] = system: C57BL6 mice; assay: Two-week oral administration to intact C57BL6 mice (serum chemistry, liver histology, liver and ileum gene expression); format: in vivo; details: 30 mg/Kg daily by oral gavage, two weeks
Experimental: C57BL6 mice were administered with 14 (30 mg/Kg daily by oral gavage) for two weeks.
C57BL6 mice were originally donated by Dr. Galya Vassileva (Schering-Plough Research Institute, Kenilworth). The colonies were maintained in the animal facility of University of Perugia. […] Mice were housed under controlled temperatures (22 °C) and photoperiods (12:12-h light/dark cycle), allowed unrestricted access to standard mouse chow and tap water and allowed to acclimate to these conditions for at least 5 days before inclusion in an experiment. The study was conducted in agreement with the Italian law and the protocol was approved by ethical committee of University of Perugia and by National committee of Ministry of Health (permission n. 42/2014-B). The Veterinarian monitored the health and body conditions of the animals daily in the animal facility. The study protocol caused minor suffering; however, animals that lost more than 25% of the initial body weight were euthanized. At the day of sacrifice mice were deeply anesthetized with a mixture of tiletamine […] and zolazepam […]/xylazine at a dose of 50/5 mg/Kg. Blood, liver and terminal ileum were collected for further analysis. Aspartate aminotransferase (AST), total cholesterol and triglycerides were measured by routine biochemical clinical chemistry. For histological examination, portions of liver lobes were fixed in 10% formalin, embedded in paraffin, sectioned (5 μm thin) and stained with Hematoxylin/Eosin (H&E) for morphometric analysis.

[4] = system: SREBP1c mRNA expression; assay: RT-PCR of LXRα target gene SREBP1c in HepG2 cells; details: Homo sapiens, HepG2, 18 h, read-out: EC50 for induction of SREBP1c gene expression
Experimental: (§1) HepG2 and Glutag cells were plated at 1 × 10^6 cells/well in a 6 well plate.
(§2) Total RNA was isolated from HepG2 or Glutag cells and from animal tissues (liver and terminal ileum) using the TRIzol reagent according to the manufacturer’s specifications (Invitrogen). One microgram of purified RNA was treated with DNase-I and reverse transcribed with Superscript II (Invitrogen). For Real Time PCR, 25 ng template was dissolved in 25 μL containing 200 nmol/L of each primer and 12.5 μL of 2 × SYBR FAST Universal ready mix (Invitrogen). […] The relative mRNA expression was calculated and expressed as 2^(−ΔΔCt).

[5] = system: ABCA1 mRNA expression; assay: RT-PCR of LXRα target gene ABCA1 in HepG2 cells; details: Homo sapiens, HepG2, 18 h, read-out: EC50 for induction of ABCA1 gene expression
Experimental: as §1, §2

[6] = system: pro-glucagon mRNA expression; assay: RT-PCR of GPBAR1 target gene pro-glucagon in Glutag cells; details: Mus musculus, 18 h, read-out: EC50 for induction of pro-glucagon mRNA
Experimental: as §1, §2

[7] = system: GPBAR1 (also known as TGR5); details: in vitro studies; cited from earlier work

Row | Structure (SMILES) | EC50 [1] | EC50 [2] | also measured
1 | CC(C)=CCCC(C)C1CCC2C3CC(O)C4CC(O)CCC4(C)C3CCC12C (stereo not shown) [Compound 4] | 6.99 ± 0.31 µM | – | –
2 | CC(C)CCCC(C)C1CCC2C3CC(O)C4CC(O)CCC4(C)C3CCC12C (stereo not shown) [Compound 5] | 8.2 ± 0.16 µM | – | Emax at 10 µM [1]: 73%
3 | C=CCCC(C)C1CCC2C3CC(O)C4CC(O)CCC4(C)C3CCC12C (stereo not shown) [Compound 8] | 2.7 ± 0.65 µM | – | –
4 | CCCCC(C)C1CCC2C3CC(O)C4CC(O)CCC4(C)C3CCC12C (stereo not shown) [Compound 9] | 5.1 ± 0.43 µM | – | –
5 | CC(CCCCc1ccccc1)C1CCC2C3CC(O)C4CC(O)CCC4(C)C3CCC12C (stereo not shown) [Compound 12] | 12.4 ± 0.41 µM | – | Emax at 10 µM [1]: 63%
6 | CC(C)=CCC(C)C1CCC2C3CC(O)C4CC(O)CCC4(C)C3CCC12C (stereo not shown) [Compound 13] | 22.3 ± 3.05 µM | 4.2 ± 0.79 µM | –
7 | CC(C)CCC(C)C1CCC2C3CC(O)C4CC(O)CCC4(C)C3CCC12C (stereo not shown) [Compound 14] | 3.2 ± 0.03 µM | 4.9 ± 0.2 µM | expression of GPBAR1 target genes GLP1 and Fgf21 in terminal ileum ([3]; Real-Time PCR): increases; liver expression of steatosis marker genes FAS, SREBP1c, CD36 and PPARs ([3]; Real-Time PCR on liver tissue): does not induce; liver histology (H&E staining), fat deposition ([3]; vs control): no differences; plasmatic level of AST ([3]; vs control): no effects; plasmatic level of cholesterol ([3]; vs control): no effects; plasmatic level of triglycerides ([3]; vs control): no effects; Emax at 10 µM [1]: 109%; EC50 [4]: 5.8 µM; EC50 [5]: 8.3 µM; EC50 [6]: 6.5 µM
8 | C=CCC(C)C1CCC2C3CC(O)C4CC(O)CCC4(C)C3CCC12C (stereo not shown) [Compound 15] | – | 3.7 ± 0.38 µM | –
9 | C=CC(C)C1CCC2C3CC(O)C4CC(O)CCC4(C)C3CCC12C (stereo not shown) [Compound 17] | – | 2.54 ± 0.015 µM | –
10 | CCCC[C@@H](C)[C@H]1CCC2C3CC[C@@H]4C[C@H](O)CC[C@]4(C)C3CC[C@@]21C (stereo partly shown) [Compound 20] | – | 6.8 ± 0.08 µM | –
11 | CC(C)=CCC[C@@H](C)[C@H]1CCC2C3CC[C@@H]4C[C@H](O)CC[C@]4(C)C3CC[C@@]21C (stereo partly shown) [Compound 21] | – | 5.9 ± 0.055 µM | –
12 | CC[C@@H](C)[C@H]1CCC2C3CC[C@@H]4C[C@H](O)CC[C@]4(C)C3CC[C@@]21C (stereo partly shown) [Compound 24] | – | 0.91 ± 0.092 µM | –
13 | CC(C)=CCC[C@@H](C)[C@H]1CCC2C3CC[C@H]4C[C@@H](O)CC[C@]4(C)C3CC[C@@]21C (stereo partly shown) [Compound 25] | – | 7.6 ± 0.71 µM | –
14 | C=CCC[C@@H](C)[C@H]1CCC2C3CC[C@H]4C[C@@H](O)CC[C@]4(C)C3CC[C@@]21C (stereo partly shown) [Compound 27] | – | 1 ± 0.062 µM | –
15 | C=C[C@@H](C)[C@H]1CCC2C3CC[C@H]4C[C@@H](O)CC[C@]4(C)C3CC[C@@]21C (stereo partly shown) [Compound 29] | – | 4.9 ± 0.06 µM | –
16 | CC[C@@H](C)[C@H]1CCC2C3CC[C@H]4C[C@@H](O)CC[C@]4(C)C3CC[C@@]21C (stereo partly shown) [Compound 30] | – | 1.98 ± 0.145 µM | –
17 | C[C@H](CCC(=O)O)[C@H]1CC[C@H]2[C@@H]3C[C@H](O)[C@@H]4C[C@H](O)CC[C@]4(C)[C@H]3CC[C@]12C [HDCA, hyodeoxycholic acid] | – | – | EC50 [7]: 31.6 µM
